Experimental data taken from US6538037B2, “Methods for preparation and use of 1α,24(S)-dihydroxyvitamin D2” (Bone Care International, Inc., priority 1991, dated 2003).

Assays:
bovine thymus VDR = target: T1, bovine thymus VDR (Bos taurus, UniProt Q28037); test: Radioreceptor assay, displacement of 3H-1α,25-(OH)2D3 tracer from bovine thymus VDR; format: binding; conditions: for ED50 (amount of material to displace 50% of the bound 3H-1α,25-dihydroxyvitamin D3): environmentally exposed crystalline and powdered material, FIG. 5; for binding affinity to VDR compared with reference standard (in words): environmentally exposed compounds
T1 construct: commercially available reagents of bovine thymus VDR; purchased Incstar (Stillwater, Minn.); host or cells: bovine thymus
T1 sequence (Q28037 1-426): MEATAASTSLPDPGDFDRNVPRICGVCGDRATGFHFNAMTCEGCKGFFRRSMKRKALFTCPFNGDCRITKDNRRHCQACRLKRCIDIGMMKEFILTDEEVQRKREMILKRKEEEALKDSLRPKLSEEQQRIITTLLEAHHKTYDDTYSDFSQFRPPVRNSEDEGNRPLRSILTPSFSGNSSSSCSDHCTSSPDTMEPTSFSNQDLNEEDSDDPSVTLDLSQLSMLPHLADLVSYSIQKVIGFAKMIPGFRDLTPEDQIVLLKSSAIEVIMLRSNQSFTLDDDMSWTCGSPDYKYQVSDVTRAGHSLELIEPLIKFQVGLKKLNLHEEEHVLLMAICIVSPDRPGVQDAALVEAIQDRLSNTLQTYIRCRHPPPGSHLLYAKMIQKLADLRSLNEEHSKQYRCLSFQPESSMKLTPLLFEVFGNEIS
Description: Purified 1α,24(S)-(OH)2D2 was quantitated by photodiode array spectrophotometry and assayed in the radioreceptor assay.
The purified 1α,24(R)-(OH)2D2 and 1α,24(S)-(OH)2D2 epimers were quantitated by ultraviolet spectroscopy.
The binding affinities of the environmentally exposed compounds, crystalline 1α,24-dihydroxyvitamin D2 and powdered 1α,24-dihydroxyvitamin D2, to the vitamin D receptor (VDR) were assessed using methods known in the art, as described, e.g., in Example 6. […] The percent bound versus amount of compound in pg/tube are graphed in FIG. 5.

[1] = Chemical stability testing, exposure to heat and light; format: physicochemical; conditions: one week; for share of UV absorbing material being 1α,24-dihydroxyvitamin D2 (HPLC): detection at 265 nm; for absorbence at 265 nm retained: specimens exposed to heat and light, reference standard in ethanol in a freezer; for overall retention of the compound (remained intact): after heat and light
Description: Samples of approximately 5 mg of either crystalline or powdered 1α,24-dihydroxyvitamin D2 were each placed in a 5 mL volumetric flask. The flasks were exposed to identical environmental conditions of variations in heat and light. Heat and light are environmental parameters well-known to affect negatively the integrity of vitamin D compounds.
After one week's time, the contents of the flasks were visually inspected. The powdered specimen appeared to be slightly yellow in color compared to the crystalline specimen. Five mL of ethanol was added to each sample and each specimen was dissolved. These solutions were analyzed for ultraviolet absorbence from 200 to 320 nm. A reference standard 1α,24-dihydroxyvitamin D2 dissolved in ethanol at the same concentration and stored in a freezer for the identical time period was similarly analyzed.
The ethanol solutions of the crystalline and powdered 1α,24-dihydroxyvitamin D2 were also analyzed by high performance liquid chromatography (HPLC) under the following conditions: […]

[2] = cited from earlier work
Hep 3B cells = test: Metabolism of 1α-OH-D2 in Hep 3B cells; format: in vitro ADME, human; conditions: Experiment 2, substrate 1α-OH-D2 10 μM, photodiode array spectrophotometry
Description: Substantially pure 1α-(OH)D2 was obtained from Bone Care International, Inc. of Madison, Wis. The 1α-(OH)D2 was cultured for 48 hours with cells derived from a human hepatoma, Hep 3B, in medium devoid of fetal calf serum using known methods in the art.
Lipid extracts of the combined medium and cells were generated by known methods in the art and were subjected to high pressure liquid chromatography (HPLC) on Zorbax-S1L developed with hexane/isopropano/methanol (91:7:2). The putative 1α,24(?)-(OH)2D2 metabolite eluted between the parent 1α-(OH)D2 and standard 1α,25-(OH)2D2 (also obtained from Bone Care International, Inc. of Madison, Wis.). (As used herein, the term “1α,24(?)-(OH)2D2” is meant to indicate that the epimeric form has not been identified.) The 1α,24(?)-(OH)2D2 was further purified by this HPLC system before the metabolite's identification was undertaken using mass spectrometry analysis.
Hep 3B cells were incubated with 1α-OH-D2, as described above, at final concentrations of 1, 10, or 100 nM (Experiment 1), and 1 or 10 μM (Experiment 2) and 1α,24(S)-(OH)2D2 was extracted and purified. The 1α,24(S)-(OH)2D2 and 1α,25-(OH)2D2 metabolites were quantitated by recovered radiolabel (Experiment 1) or by photodiode array spectrophotometry (Experiment 2).

[3] = Blood metabolite levels in osteoporotic women administered 1α-OH-D2; format: in vivo, human
Description: An increase in the production of 1α,24(S)-(OH)2D2 relative to 1α,25-(OH)2D2 has also been observed by the present inventors in human females who received 1α-OH-D2 as part of an investigation of that drug for the treatment of osteoporosis. Following either a single dose of 2 μg of 1α-OH-D2 or daily doses of 8 μg/day for one week, blood was collected and analyzed for the metabolites 1α,24(S)-(OH)2D2 and 1α,25-(OH)2D2. Lipid was extracted from the blood, and the metabolites were purified by HPLC using standard methods and quantified with the radioreceptor assay produced by Incstar (Stillwater, Minn.). One day after a single 2 μg dose, the level of 1α,24(S)-(OH)2D2 was undetectable with the 1α,25-(OH)2D2 level being approximately 11 pg/ml. In contrast, one day following the last dose of 8 μg, the level of 1α,24(S)-(OH)2D2 averaged 9 pg/mL with the 1α,25-(OH)2D2 level averaging 30 pg/mL.

[4] = Plasma metabolites in vitamin D-deficient rats; format: in vivo, rat; conditions: for plasma metabolite after administration: oral or intraperitoneal, vitamin D-deficient rats, HPLC of plasma lipid extracts
Description: Vitamin D2 or 24-OH-D2 was administered (either oral or intraperitoneal supplementation) to vitamin D-deficient rats. Lipid extracts of the plasma were prepared and the metabolites purified by the method of Horst et al. (Horst, R. L., Koszewski, N.J. and Reinhardt, T. A., Biochem., 29:578-82 (1990)) described below for synthesyzing standard biological 1α,24-(OH)2D2.
Standard biological 1α,24-(OH)2D2 was synthesized in vitro from 24-OH-D2 by incubating 10 μg of 24-OH-D2 in flask containing 5 mL of 20% kidney homogenates made from vitamin D-deficient chicks. The product of this reaction was isolated by HPLC and identified by mass spectrometry.

vitamin D receptor (VDR) = test: Vitamin D-inducible growth hormone production in transfected COS-1 cells; format: cell-based, Green monkey; conditions: for Total GH Production: averages of duplicate determinations
Description: The biological activity in vitro of chemically synthesized 1α,24(S)-(OH)2D2 and 1α,24(R)-(OH)2D2 was measured using a vitamin D-dependent transcriptional activation model system in which a vitamin D receptor (VDR)-expressing plasmid pSG5-hVDR1/3 and a plasmid p(CT4)^4TKGH containing a Growth Hormone (GH)-gene, under the control of a vitamin D-responsive element (VDRE) were co-transfected into Green monkey kidney, COS-1 cells. DNA's for these two vectors were supplied by Dr. Mark Haussler, Department of Biochemistry, University of Arizona, Tucson, Ariz.
Transfected cells were incubated with vitamin D metabolites and growth hormone production was measured.

[5] = tested on: 1,25-(OH)2D3 receptor site; conditions: Ishizuka et al., Steroids 1981, 1982; cited from earlier work

With `C=C1C(=CC=C2CCCC3(C)C2CCC3C(C)C=CC(C)(O)C(C)C)CC(O)CC1O` (stereo not drawn) [reference standard, 1α,24-dihydroxyvitamin D2] the “ED50 (amount of material to displace 50% of the bound 3H-1α,25-dihydroxyvitamin D3)” value (bovine thymus VDR) was “about 10 pg/tube”, the “retention of the structure, weight-based normalization of the HPLC peak area” value [1] was 100% and the “share of UV absorbing material being 1α,24-dihydroxyvitamin D2 (HPLC)” value (“share” below) [1] was 96%. For the same molecule, the “absorbence at 265 nm retained” value [1] was 100%.

For `C=C1/C(=C\C=C2/CCC[C@]3(C)[C@@H]([C@H](C)CCCC(C)C)CC[C@@H]23)C[C@@H](O)C[C@@H]1O` [1α-(OH)D3, 1α-hydroxyvitamin D3], the “safely obtainable dosage levels” value ([2]; human, in vivo) is listed as “dosage levels of 2.0 μg/day or greater are not safely obtained”.

For `C=C1/C(=C\C=C2/CCC[C@]3(C)[C@@H]([C@H](C)/C=C/[C@H](C)C(C)(C)O)CC[C@@H]23)C[C@@H](O)C[C@@H]1O` [1α,25-(OH)2D2, 1α,25-dihydroxyvitamin D2, reference compound], the half-maximal binding (bovine thymus VDR; radioreceptor assay, Incstar kit) was 80 pg/mL, the “Rate of Production” value (Hep 3B cells) was 7.4 pmol per 10^6 cells/day and the “blood level of metabolite” value ([3]; one day after a single 2 μg dose of 1α-OH-D2) was “approximately 11 pg/ml”. For the same molecule, the “blood level of metabolite (average)” value ([3]; one day following the last dose of 8 μg/day 1α-OH-D2 for one week) was 0.03 ng/mL.

In the case of `C=C1CC[C@H](O)C/C1=C/C=C1\CCC[C@]2(C)[C@@H]([C@H](C)/C=C/[C@H](C)C(C)C)CC[C@@H]12` [vitamin D2], the “plasma metabolite after administration” value [4] is reported as “one metabolite isolated co-migrated on HPLC with the standard 1α,24-(OH)2D2”.

With `C=C1/C(=C\C=C2/CCC[C@]3(C)[C@@H]([C@H](C)/C=C/[C@](C)(O)C(C)C)CC[C@@H]23)C[C@@H](O)C[C@@H]1O` [1α,24(R)-(OH)2D2, 1α,24(R)-dihydroxyvitamin D2] the “Net vitamin D-inducible GH-production” value (vitamin D receptor (VDR); inducer 5 × 10^−8 M) was 1138 ng/mL, the “Total GH Production” value (vitamin D receptor (VDR); inducer 5 × 10^−8 M) was 1182 ng/mL and the “Net vitamin D-inducible GH-production” value (vitamin D receptor (VDR); inducer 10^−7 M) was 1256 ng/mL. The “Total GH Production” value (vitamin D receptor (VDR); inducer 10^−7 M) was 1300 ng/mL, the “Net vitamin D-inducible GH-production” value (vitamin D receptor (VDR); inducer 10^−8 M) was 1056 ng/mL and the “Total GH Production” value (vitamin D receptor (VDR); inducer 10^−8 M) was 1100 ng/mL. The “Net vitamin D-inducible GH-production” value (vitamin D receptor (VDR); inducer 10^−9 M) was 36 ng/mL and the “Total GH Production” value (vitamin D receptor (VDR); inducer 10^−9 M) was 80 ng/mL.

In the case of `C=C1C(=CC=C2CCCC3(C)C2CCC3C(C)C=CC(C)(O)C(C)C)CC(O)CC1O` (stereo not drawn) [crystalline 1α,24-dihydroxyvitamin D2, 1α,24-dihydroxyvitamin D2], the “binding affinity to VDR compared with reference standard (in words)” value (bovine thymus VDR) is reported as “approximately the same as that of a reference standard”, the “ED50 (amount of material to displace 50% of the bound 3H-1α,25-dihydroxyvitamin D3)” value (bovine thymus VDR; listed as crystalline material) is reported as “about 10 pg/tube” and the “overall retention of the compound (remained intact)” value [1] is reported as “over 88%”. For the same molecule, the “share” value [1] was 95%, the “retention of the structure, weight-based normalization of the HPLC peak area” value ([1]; listed as crystalline specimen) was 93% and the “absorbence at 265 nm retained” value ([1]; listed as crystalline specimen) was 93%.

For `C=C1C(=CC=C2CCCC3(C)C2CCC3C(C)C=CC(C)(O)C(C)C)CC(O)CC1O` (stereo not drawn) [powdered 1α,24-dihydroxyvitamin D2, 1α,24-dihydroxyvitamin D2], the “binding affinity to VDR compared with reference standard (in words)” value (bovine thymus VDR) was “considerably less”, the “ED50 (amount of material to displace 50% of the bound 3H-1α,25-dihydroxyvitamin D3)” value (bovine thymus VDR) was “about 40 pg/tube” and the “binding activity relative to standard 1α,24-dihydroxyvitamin D2” value (bovine thymus VDR; powder form exposed to the same conditions) was “less than 25%”. For the same molecule, the “overall retention of the compound (remained intact)” value [1] was 35%, the “share” value [1] was 78% and the “retention of the structure, weight-based normalization of the HPLC peak area” value ([1]; listed as powdered specimen) was 23%. For the same molecule, the “absorbence at 265 nm retained” value ([1]; listed as powdered specimen) was 45%.

For `C=C1CC[C@H](O)C/C1=C/C=C1\CCC[C@]2(C)[C@@H]([C@H](C)/C=C/C(C)(O)C(C)C)CC[C@@H]12` (some centres unmarked) [24-OH-D2, 24-hydroxyvitamin D2], the “plasma metabolite after administration” value [4] was “one metabolite isolated co-migrated on HPLC with the standard 1α,24-(OH)2D2”.

For `C=C1CC[C@H](O)C/C1=C/C=C1\CCC[C@]2(C)[C@@H]([C@H](C)CCCC(C)(C)O)CC[C@@H]12` [25-OH-D3, 25-hydroxyvitamin D3, reference compound], the “Net vitamin D-inducible GH-production” value (vitamin D receptor (VDR); inducer 10^−5 M) was 731 ng/mL, the “Total GH Production” value (vitamin D receptor (VDR); inducer 10^−5 M) was 775 ng/mL and the “Net vitamin D-inducible GH-production” value (vitamin D receptor (VDR); inducer 10^−6 M) was 1056 ng/mL. The “Total GH Production” value (vitamin D receptor (VDR); inducer 10^−6 M) was 1100 ng/mL, the “Net vitamin D-inducible GH-production” value (vitamin D receptor (VDR); inducer 10^−7 M) was 201 ng/mL and the “Total GH Production” value (vitamin D receptor (VDR); inducer 10^−7 M) was 245 ng/mL.

With `C=C1CC[C@H](O)C/C1=C/C=C1\CCC[C@]2(C)[C@@H]([C@H](C)CCCC(C)C)CC[C@@H]12` [vitamin D3] the “24-hydroxylated metabolite in plasma after administration” value ([4]; comparable rats) was “no detectable 24-OH-D3”.

In the case of `C=C1/C(=C\C=C2/CCC[C@]3(C)[C@@H]([C@H](C)CC[C@@H](O)C(C)C)CC[C@@H]23)C[C@@H](O)C[C@@H]1O` [1α,24(R)-(OH)2D3, 1α,24(R)-dihydroxyvitamin D3], the “binding to the 1,25-(OH)2D3 receptor site relative to 1,25-(OH)2D3” value [5] is listed as “more tightly than does 1,25-(OH)2D3 itself”.

For `C=C1/C(=C\C=C2/CCC[C@]3(C)[C@@H]([C@H](C)/C=C/[C@H](C)C(C)C)CC[C@@H]23)C[C@@H](O)C[C@@H]1O` [1α-(OH)D2, 1α-hydroxyvitamin D2], the “bone mass in human osteoporotic patients” value ([2]; dosages of 2.0 μg/day or higher) is given as “will reverse the loss of bone mass”.
